The results in this text go back to patent US8207293B2, “Peptides derived from maurocalcine used as vectors for intracellular addressing of molecules of interest” (Commissariat a l'Energie Atomique, priority 2004, dated 2012).

Like-named read-outs stand apart in the source and are kept apart here.

Experiment [1] has as its system live cells. Nature of the experiment: Flow cytometry analysis of cellular penetration at increasing extracellular KCl (membrane potential). It counts as cell-based. On the procedure:
The MCab-Strept-Cy^5 complexes were prepared in solutions containing various NaCl/KCl ratios (composition in mM: 145 to 5 NaCl, 5 to 145 KCl, 2.5 CaCl2, 1.2 MgCl2, 10 glucose, 10 HEPES, pH 7.4).
The cells were washed twice with the NaCl/KCl solution used to prepare the complexes, and then incubated with maurocalcine and the derived peptides, which are biotinylated and complexed with streptavidin-cyanin 3 (MCab-Strept-Cy^3 complexes), at the final concentration of 100 nM in the same NaCl/KCl solution, in the dark and at ambient temperature for 1 hour. After 2 washes in the same NaCl/KCl buffer, the cyanin 3 fluorescence was analyzed on live cells, using a flow cytometer (FACScalibur, BECTON DICKINSON). The data were recorded and analyzed using appropriate software (CellQuest, BD BIOSCIENCES). The live cells were sorted according to their size and their granulosity (forward/side scattering), over a total of 10 000 events.

The nature of experiment [2]: Surface pressure of monomolecular lipid films (DPPC). Particulars: 1 μM. On the procedure:
(§1) The disialoganglioside NeuAcα2-8NeuAca2-3Galb1-aGlcb1-Cer (GD3) and dipalmitoylphosphatidylcholine (DPPC) were provided respectively by MATREYA INC and SIGMA.
The surface pressure was measured using an automatic microtensiometer (μ THROUGH SX, KIBRON INC.). The apparatus makes it possible to record kinetics of interaction of a ligand with a monomolecular film using a series of appropriate Teflon probes. All the experiments were carried out in a controlled atmosphere at 20±1. The molecular films of the lipids indicated were deposited onto an aqueous phase of ultrapure water (800 μl), using hexane:chloroform:ethanol (11:5:4, v/v/v), as described previously (Mahfoud et al., J. Biol. Chem., 2002, 277, 11292-11296). After spreading of the film, a minimum period of elapsed time of 5 min was observed, in order to allow the solvent to evaporate off. In order to measure the interaction of MCa with the lipid monolayers, various concentrations of peptides were injected into the monomolecular film with a […] Hamilton syringe and the resulting increase in pressure, produced by the incorporation of the peptide, was recorded until equilibrium was reached (maximum increase in surface pressure generally reached after an incubation of 100 to 150 min). […] The results were analyzed with Filmware 2.5 software (KIBRON INC.). […]

Experiment [3] in a line: Surface pressure of monomolecular lipid films (GD3). As for the experimental part:
as §1
The surface pressure was measured using an automatic microtensiometer (μ THROUGH SX, KIBRON INC.). The apparatus makes it possible to record kinetics of interaction of a ligand with a monomolecular film using a series of appropriate Teflon probes. All the experiments were carried out in a controlled atmosphere at 20±1. The molecular films of the lipids indicated were deposited onto an aqueous phase of ultrapure water (800 μl), using hexane:chloroform:ethanol (11:5:4, v/v/v), as described previously (Mahfoud et al., J. Biol. Chem., 2002, 277, 11292-11296). After spreading of the film, a minimum period of elapsed time of 5 min was observed, in order to allow the solvent to evaporate off. In order to measure the interaction of MCa with the lipid monolayers, various concentrations of peptides were injected into the monomolecular film with a […] Hamilton syringe and the resulting increase in pressure, produced by the incorporation of the peptide, was recorded until equilibrium was reached (maximum increase in surface pressure generally reached after an incubation of 100 to 150 min). For the dose-dependent interaction between MCa and GD3, the monomolecular films of GD3 were prepared at an initial surface pressure (pi) of 10 mN·m^−1. The results were analyzed with Filmware 2.5 software (KIBRON INC.). The system for measuring the surface pressures was accurate to 0.25 mN·m^−1 under the experimental conditions.

Experiment [4] concerns HEK293 cells. Kind of experiment: Flow cytometry analysis of cellular penetration of complexes (trypsin/heparin treatment). Particulars: for penetrating activity compared with maurocalcine (factor): biotinylated variant/Strept-Cy3 complexes, FIG. 5. It counts as cell-based, human. As for the experimental part: The cells are incubated with maurocalcine and the derived peptides, biotinylated and complexed with […], at the final concentration of 100 nM in PBS, in the dark and at ambient temperature for 1 hour. After 2 washes in PBS (PBS, in mM: […], 6.84 Na2HPO4, 3.16 NaH2PO4, pH 7.2), and the cells were treated with trypsin (1 mg/ml, INVITROGEN), for 10 min at 37° C., in order to remove the extracellular complexes and the plasma-membrane-bound complexes. After the incubation with trypsin, the cell suspension was centrifuged at 500 g and the cells were resuspended in PBS containing 1 μg/ml of propidium iodide (SIGMA). […] The analysis was carried out on live cells, using a flow cytometer (FACScalibur, BECTON DICKINSON). The data were recorded and analyzed using appropriate software (CellQuest, BD BIOSCIENCES). The live cells were sorted according to their size and their granulosity (forward/side scattering), over a total of 10 000 events.
The analysis is carried out as described in Example 1. For the heparin treatment experiments, the complexes were prepared in a heparin solution (bovine intestine heparin, sodium salt, SIGMA) and the cells were washed twice with the heparin solution, before and after incubation with the complexes prepared in the same heparin solution.
The cellular penetration was analyzed by flow cytometry, on cells incubated with the MCab/Strept-Cy3 complexes, and then treated with trypsin, so as to remove the complexes bound to the plasma membrane by means of lipids, specific receptors or heparan sulfate glycosaminoglycan (HPSG). It has been shown that this method makes it possible to effectively study the entry of penetrating peptides into cells (Richard et al., J. Biol. Chem., 2003, 278, 585-590).
(Flow cytometry measures light scatter and fluorescence of single cells or particles in a stream.)

Experiment [5] deals with T1, RyR1 receptor (Oryctolagus cuniculus, UniProt P11716).
T1 construct: from tissue; host or cells: heavy sarcoplasmic reticulum vesicles (skeletal muscle implied)
T1 sequence (P11716 whole entry): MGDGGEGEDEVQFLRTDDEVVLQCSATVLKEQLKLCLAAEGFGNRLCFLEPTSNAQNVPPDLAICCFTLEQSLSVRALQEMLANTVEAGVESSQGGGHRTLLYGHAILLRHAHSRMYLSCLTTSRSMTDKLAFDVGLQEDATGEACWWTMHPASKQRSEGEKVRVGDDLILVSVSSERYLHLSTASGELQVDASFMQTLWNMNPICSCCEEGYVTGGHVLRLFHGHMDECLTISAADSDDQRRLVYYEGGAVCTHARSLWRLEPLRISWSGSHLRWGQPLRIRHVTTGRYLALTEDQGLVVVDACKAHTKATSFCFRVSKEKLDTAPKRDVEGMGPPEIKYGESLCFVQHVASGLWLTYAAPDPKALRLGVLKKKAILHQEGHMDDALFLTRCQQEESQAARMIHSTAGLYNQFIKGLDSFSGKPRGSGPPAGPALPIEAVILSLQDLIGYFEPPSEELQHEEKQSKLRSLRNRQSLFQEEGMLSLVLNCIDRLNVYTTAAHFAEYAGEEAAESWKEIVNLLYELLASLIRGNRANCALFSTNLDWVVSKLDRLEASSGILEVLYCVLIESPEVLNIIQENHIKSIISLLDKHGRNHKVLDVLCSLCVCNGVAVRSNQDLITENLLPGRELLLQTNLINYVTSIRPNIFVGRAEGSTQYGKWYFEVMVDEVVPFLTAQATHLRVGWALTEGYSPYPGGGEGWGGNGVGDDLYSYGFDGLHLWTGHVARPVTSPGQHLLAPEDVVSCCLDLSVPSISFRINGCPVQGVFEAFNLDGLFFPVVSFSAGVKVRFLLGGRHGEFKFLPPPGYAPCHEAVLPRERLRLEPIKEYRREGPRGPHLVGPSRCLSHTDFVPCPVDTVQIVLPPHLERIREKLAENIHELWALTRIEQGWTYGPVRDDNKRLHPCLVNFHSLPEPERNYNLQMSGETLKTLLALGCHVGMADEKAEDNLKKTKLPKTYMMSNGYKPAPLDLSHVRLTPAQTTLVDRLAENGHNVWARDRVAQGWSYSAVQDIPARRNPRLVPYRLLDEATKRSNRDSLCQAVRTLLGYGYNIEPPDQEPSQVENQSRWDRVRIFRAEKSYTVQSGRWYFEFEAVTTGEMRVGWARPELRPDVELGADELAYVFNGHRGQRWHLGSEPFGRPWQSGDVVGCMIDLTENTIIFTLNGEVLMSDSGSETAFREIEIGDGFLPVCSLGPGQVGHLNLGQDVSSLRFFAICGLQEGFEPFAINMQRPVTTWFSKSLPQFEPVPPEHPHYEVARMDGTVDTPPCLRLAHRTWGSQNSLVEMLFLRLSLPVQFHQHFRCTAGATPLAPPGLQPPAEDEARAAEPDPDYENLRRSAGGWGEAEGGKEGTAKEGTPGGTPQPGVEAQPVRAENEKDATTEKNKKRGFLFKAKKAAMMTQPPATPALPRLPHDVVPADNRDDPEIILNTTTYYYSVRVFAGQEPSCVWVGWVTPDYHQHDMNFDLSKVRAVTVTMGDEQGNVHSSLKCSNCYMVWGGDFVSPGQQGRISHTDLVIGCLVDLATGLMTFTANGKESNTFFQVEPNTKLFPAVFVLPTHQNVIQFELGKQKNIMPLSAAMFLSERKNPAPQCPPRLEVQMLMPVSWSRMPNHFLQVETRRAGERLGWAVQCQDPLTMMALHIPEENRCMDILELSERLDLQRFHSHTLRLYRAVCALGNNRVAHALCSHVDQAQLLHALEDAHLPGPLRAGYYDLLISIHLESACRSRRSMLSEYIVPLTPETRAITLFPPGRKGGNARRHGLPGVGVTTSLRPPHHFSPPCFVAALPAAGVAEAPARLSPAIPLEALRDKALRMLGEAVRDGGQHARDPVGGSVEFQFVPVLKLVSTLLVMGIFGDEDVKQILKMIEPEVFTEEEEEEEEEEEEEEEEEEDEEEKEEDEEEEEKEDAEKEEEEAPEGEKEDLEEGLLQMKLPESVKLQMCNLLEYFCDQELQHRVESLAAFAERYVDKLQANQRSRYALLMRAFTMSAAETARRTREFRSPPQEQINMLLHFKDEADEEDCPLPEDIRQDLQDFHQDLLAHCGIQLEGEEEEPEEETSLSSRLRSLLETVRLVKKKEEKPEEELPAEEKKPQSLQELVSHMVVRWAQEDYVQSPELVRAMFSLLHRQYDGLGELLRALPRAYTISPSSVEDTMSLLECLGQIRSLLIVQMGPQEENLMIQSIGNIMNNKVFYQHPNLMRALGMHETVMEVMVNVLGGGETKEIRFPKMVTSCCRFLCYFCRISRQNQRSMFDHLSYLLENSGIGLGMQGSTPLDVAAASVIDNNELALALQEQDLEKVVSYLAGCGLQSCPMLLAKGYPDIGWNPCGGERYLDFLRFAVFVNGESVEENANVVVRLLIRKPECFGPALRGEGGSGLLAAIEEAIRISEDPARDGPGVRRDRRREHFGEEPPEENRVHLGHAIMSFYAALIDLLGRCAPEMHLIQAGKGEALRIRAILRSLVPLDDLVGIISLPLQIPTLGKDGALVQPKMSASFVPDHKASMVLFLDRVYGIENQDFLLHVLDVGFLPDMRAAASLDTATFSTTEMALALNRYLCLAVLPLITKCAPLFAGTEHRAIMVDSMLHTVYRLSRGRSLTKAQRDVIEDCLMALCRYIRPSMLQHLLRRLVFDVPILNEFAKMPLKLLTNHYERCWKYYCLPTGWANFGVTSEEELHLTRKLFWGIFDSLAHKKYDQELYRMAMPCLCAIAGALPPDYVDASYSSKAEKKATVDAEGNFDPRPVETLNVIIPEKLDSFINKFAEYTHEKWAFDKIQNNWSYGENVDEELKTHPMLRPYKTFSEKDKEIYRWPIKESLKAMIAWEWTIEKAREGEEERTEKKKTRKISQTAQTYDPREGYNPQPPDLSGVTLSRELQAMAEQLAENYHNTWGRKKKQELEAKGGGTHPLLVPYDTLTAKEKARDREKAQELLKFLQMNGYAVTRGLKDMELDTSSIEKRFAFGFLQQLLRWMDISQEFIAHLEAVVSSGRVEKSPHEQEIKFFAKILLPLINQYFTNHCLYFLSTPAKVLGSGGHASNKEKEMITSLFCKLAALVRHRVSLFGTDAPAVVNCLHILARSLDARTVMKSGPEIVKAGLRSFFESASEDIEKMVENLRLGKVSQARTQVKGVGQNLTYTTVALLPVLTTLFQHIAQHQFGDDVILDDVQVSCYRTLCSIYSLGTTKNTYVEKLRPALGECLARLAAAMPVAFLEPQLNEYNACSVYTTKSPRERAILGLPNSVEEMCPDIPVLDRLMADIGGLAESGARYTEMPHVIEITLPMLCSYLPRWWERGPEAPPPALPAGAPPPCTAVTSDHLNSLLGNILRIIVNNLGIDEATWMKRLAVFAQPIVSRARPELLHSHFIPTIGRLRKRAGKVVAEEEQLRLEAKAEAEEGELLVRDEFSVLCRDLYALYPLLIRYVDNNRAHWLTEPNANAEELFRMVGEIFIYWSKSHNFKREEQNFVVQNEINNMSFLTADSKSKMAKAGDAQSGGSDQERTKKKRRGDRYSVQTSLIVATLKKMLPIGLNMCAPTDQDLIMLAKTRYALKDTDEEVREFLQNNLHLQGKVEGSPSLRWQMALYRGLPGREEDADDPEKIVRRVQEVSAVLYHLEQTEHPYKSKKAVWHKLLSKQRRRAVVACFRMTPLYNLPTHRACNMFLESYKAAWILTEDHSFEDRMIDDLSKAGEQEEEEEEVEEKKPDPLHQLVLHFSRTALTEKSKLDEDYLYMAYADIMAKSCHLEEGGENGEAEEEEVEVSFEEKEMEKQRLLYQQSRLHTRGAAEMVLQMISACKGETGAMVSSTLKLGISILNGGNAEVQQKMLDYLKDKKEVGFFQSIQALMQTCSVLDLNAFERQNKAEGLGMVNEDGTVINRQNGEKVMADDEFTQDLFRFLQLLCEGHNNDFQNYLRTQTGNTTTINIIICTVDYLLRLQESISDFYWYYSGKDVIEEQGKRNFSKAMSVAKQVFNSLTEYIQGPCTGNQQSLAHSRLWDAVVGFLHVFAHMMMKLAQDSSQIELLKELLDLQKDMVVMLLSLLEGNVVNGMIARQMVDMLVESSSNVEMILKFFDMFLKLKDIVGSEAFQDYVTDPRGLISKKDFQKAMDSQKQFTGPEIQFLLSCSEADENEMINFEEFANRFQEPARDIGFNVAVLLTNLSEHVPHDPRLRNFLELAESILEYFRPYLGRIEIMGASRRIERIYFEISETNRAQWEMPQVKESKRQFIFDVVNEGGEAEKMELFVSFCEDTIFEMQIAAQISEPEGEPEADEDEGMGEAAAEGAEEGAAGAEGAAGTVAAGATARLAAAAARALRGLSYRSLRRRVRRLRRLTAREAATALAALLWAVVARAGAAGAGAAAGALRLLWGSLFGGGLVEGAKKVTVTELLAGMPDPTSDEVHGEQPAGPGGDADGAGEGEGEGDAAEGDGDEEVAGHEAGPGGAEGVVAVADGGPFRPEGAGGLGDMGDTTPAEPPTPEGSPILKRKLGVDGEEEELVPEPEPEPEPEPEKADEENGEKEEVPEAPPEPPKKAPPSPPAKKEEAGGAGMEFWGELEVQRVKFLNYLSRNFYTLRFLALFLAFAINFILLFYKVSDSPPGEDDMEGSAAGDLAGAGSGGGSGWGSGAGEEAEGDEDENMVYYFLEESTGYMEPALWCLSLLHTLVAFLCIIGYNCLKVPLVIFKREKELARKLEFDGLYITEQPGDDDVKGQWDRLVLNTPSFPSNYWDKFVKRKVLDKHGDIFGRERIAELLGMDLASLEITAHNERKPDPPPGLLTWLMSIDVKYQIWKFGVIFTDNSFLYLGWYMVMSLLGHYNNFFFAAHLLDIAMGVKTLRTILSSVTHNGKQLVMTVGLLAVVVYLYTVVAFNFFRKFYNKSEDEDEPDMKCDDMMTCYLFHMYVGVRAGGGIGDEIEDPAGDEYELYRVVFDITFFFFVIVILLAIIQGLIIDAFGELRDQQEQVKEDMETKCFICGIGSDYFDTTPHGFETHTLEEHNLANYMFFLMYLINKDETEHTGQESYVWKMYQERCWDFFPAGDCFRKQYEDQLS
Nature of the experiment: Tritiated ryanodine binding assay on heavy sarcoplasmic reticulum vesicles. Particulars: biotinylated variants complexed with Strept-Cy3, increasing concentrations. As for the experimental part:
The heavy sarcoplasmic reticulum vesicles are prepared according to the method of Kim et al. (J. Biol. Chem., 1983, 258, 9662-9668) modified as described in Marty et al. (J. Biol. Chem., 2000, 275, 8206-8212). The protein concentration is measured by the Biuret method.
The heavy sarcoplasmic reticulum vesicles (1 mg/ml) are incubated at 37° C. for 2 hours and 30 min, in reaction buffer comprising 5 nM [^3H]-ryanodine, 150 mM NaCl, 2 mM EGTA, 2 mM Ca^2+ (pCa=5) and 20 mM Hepes, pH 7.4. Maurocalcine, the maurocalcine-derived peptides and their biotinylated derivatives are added before the addition of the heavy sarcoplasmic reticulum vesicles. The [^3H]-ryanodine bound to the heavy sarcoplasmic vesicles is measured by filtration through Whatmann GF/B filters, followed by three washes with 5 ml of ice-cold washing buffer (150 mM NaCl, 20 mM Hepes, pH 7.4). The [^3H]-ryanodine retained on the filters is measured by liquid scintillation. The nonspecific binding is measured in the presence of […] ryanodine (20 μM). The results are given in the form of means±standard deviation. Each experiment is carried out in triplicate and repeated at least twice.

Experiment [6] concerns HEK293 cells. Nature of the experiment: Cell penetration and subcellular distribution of complexes in HEK293 cells, confocal microscopy. Particulars: 333 nM, 30 min. It counts as cell-based, human. As for the experimental part:
Soluble streptavidin-cyanin 3 and streptavidin-cyanin 5 (Strept-Cy^3 and Strept-Cy^5, AMERSHAM) were mixed with 4 molar equivalents of biotinylated maurocalcine (1 mM) or biotinylated maurocalcine-derived peptide, in phosphate buffer (PBS, in mM: 136 NaCl, 1.47 Na2HPO4, 2.6 KCl, 1 CaCl2, 0.5 MgCl2, pH 7.2), for 2 hours at 37° C. and in the dark.
The human embryonic kidney cells (HEK 293 line, ATCC) are divided before confluence, by treatment with trypsin (1%), and are maintained in DMEM medium (INVITROGEN) containing 10% of inactivated fetal calf serum (INVITROGEN) and 1% of penicillin/streptomycin (INVITROGEN), in a CO2 incubator (5%). The culture medium is changed every 2 days.
The cells were incubated with maurocalcine and the derived peptides, biotinylated and complexed with streptavidin-cyanin 3 or with streptavidin-cyanin 5, […], in the dark and at ambient temperature, for 30 minutes to 1 hour. After 3 washes in PBS, the cells are fixed at ambient temperature, in a paraformaldehyde solution (4%), for 10 min, in the dark, washed in PBS and incubated for one hour with FITC-conjugated concanavalin (MOLECULAR PROBES, 5 μg/ml) in order to label the plasma membrane, and TO-PRO-3 iodide (MOLECULAR PROBES, 1 μM) in order to label the nucleus. In order to label the cytoskeleton, the cells were fixed and permeabilized with ice-cold methanol, for 10 min, washed twice in PBS and incubated with a mouse anti-alpha-tubulin antibody (1:1000, SIGMA), for 2 hours. After two washes in PBS, the cells were incubated for one hour with an anti-mouse IgG secondary antibody conjugated to Alexa 488 (1:1000, MOLECULAR PROBES). The cultures were then mounted in Vectashield mounting medium (VECTOR LABORATORIES). Preparations were observed by laser scanning confocal microscopy, using a Leica TCS-SP2 control system. The Alexa-488 and Cy3 or propidium iodide (PI) fluorescences were excited sequentially and then recorded. The Cy3 fluorescence was excited using a 543 nm helium-neon laser beam and the fluorescence emission was recorded between 554 nm and 625 nm. The images were introduced into Adobe Photoshop 7.0.

On to “GDCLPHLKLCKENKDCCSKKCKRRGTNIEKRCR [maurocalcine]”, for which the “limitation of penetration by depolarization (increase in extracellular KCl)” value in experiment [1] was “approximately 50%”. Besides, the “change in surface pressure of the DPPC film” value in experiment [2] is recorded as “no significant change in surface pressure”. Also, in experiment [3], the “concentration at which interaction with GD3 is detectable” value was determined as 100 nM and the “concentration at which interaction with GD3 reaches a maximum” value turned out to be 750 nM. In addition, in experiment [3] (1 μM MCa, GD3 film), the “maximum increase in surface pressure a (kinetics fit)” value is listed as 22.9 mN·m^−1 and the “time constant for the change in surface pressure b” value stood at 0.0003 s⁻¹. Moreover, the “maximum increase in surface pressure a (dose-response fit)” value in experiment [3] (GD3 film, as a function of MCa concentration) was 22.1 mN·m^−1. In addition, in experiment [3] (read-out: concentration that produces 50% of the maximum effect on GD3), the EC50 was 500 nM. In addition, in experiment [3] (sigmoidal fit, FIG. 11B, read-out: concentration X0 giving 50% of the maximum effect on GD3 surface pressure), the EC50 was 490 nM. The “lowest concentration at which penetration into the cells occurs” value in experiment [4] (biotinylated peptide/Strept-Cy3 complexes, dose-response) was determined as 10 nM.
As for “GDCLPHLKLCKENKDCCSKKCKRAGTNIEKRCR (maurocalcine R24A mutant)”, the “activity on the RyR1 receptor (stimulation of [3H]-ryanodine binding)” value in experiment [5] was “inactive”. Further, the “transduction of HEK293 cell cultures by biotinylated variant/Strept-Cy3 complexes” value in experiment [6] is recorded as “effectively transduce cell cultures”. Moreover, the “penetrating activity compared with maurocalcine (factor)” value in experiment [4] is given as “comparable to, or even slightly less than, maurocalcine”.
“GDCLPHAKLCKENKDCCSKKCKRRGTNIEKRCR (maurocalcine L7A mutant)”: the “activity on the RyR1 receptor (stimulation of [3H]-ryanodine binding)” value in experiment [5] is recorded as “less active on the RyR1 receptor than MCab/Strept-Cy3”. Further, in experiment [6], the “transduction of HEK293 cell cultures by biotinylated variant/Strept-Cy3 complexes” value is “effectively transduce cell cultures”. For the same sequence, in experiment [4], the “penetrating activity compared with maurocalcine (factor)” value is given as 5.
